# Experimental data as given in paper PMC6886737 (Bioorganic & medicinal chemistry letters, 2019).
# How the values were obtained:
# CDK14 [1] = target: T1, CDK14 (Homo sapiens, UniProt O94921); assay: Biotin JNK-IN-7 pull-down assay, cellular CDK14 engagement; conditions: for concentration at which CDK14 pulldown is blocked / effects shown / activity in the cellular pull-down assay: cells treated 4 h
# Target sequence in this assay (O94921 whole entry): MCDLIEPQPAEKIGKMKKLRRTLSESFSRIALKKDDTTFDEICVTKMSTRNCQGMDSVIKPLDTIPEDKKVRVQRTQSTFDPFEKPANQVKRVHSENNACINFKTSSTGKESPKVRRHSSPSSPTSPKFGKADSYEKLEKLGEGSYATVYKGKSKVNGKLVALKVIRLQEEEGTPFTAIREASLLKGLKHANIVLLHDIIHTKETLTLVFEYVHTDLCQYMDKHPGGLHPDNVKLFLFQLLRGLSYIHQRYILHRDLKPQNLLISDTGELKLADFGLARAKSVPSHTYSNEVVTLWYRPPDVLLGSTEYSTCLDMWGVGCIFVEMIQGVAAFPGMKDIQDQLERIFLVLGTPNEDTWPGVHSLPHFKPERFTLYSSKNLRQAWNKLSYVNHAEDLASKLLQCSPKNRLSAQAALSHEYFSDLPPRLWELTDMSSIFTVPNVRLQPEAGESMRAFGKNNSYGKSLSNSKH
# CDK14 [2] = target: T1, CDK14; assay: LanthaScreen CDK14 binding assay
# Target sequence in this assay (O94921 whole entry): as above
# Target sequence in this assay (Q8ND76 whole entry partner): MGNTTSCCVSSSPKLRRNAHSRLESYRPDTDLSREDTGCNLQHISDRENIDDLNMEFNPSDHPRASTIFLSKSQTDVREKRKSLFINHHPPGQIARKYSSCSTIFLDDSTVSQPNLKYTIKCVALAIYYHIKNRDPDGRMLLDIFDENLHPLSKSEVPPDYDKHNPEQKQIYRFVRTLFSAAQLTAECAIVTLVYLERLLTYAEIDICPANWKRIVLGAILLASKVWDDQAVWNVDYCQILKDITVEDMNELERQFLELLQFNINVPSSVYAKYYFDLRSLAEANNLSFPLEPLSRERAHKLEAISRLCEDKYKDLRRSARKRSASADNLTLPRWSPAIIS
# HCT116 cell line = assay: CellTiter-Glo proliferation assay; type: cell-based
# CDK10 = CDK10 (Homo sapiens, UniProt Q15131); assay: KiNativ profiling; type: cell-based; conditions: read-out: CDK10 percent inhibition relative to DMSO
# CDK2 = CDK2 (Homo sapiens, UniProt P24941); assay: KiNativ profiling; type: cell-based; conditions: read-out: CDK2 percent inhibition relative to DMSO
# CDK16 = CDK16 (Homo sapiens, UniProt Q00536); assay: KiNativ profiling; type: cell-based; conditions: read-out: CDK16 percent inhibition relative to DMSO
# Chain of CDK16 (Q00536 whole entry): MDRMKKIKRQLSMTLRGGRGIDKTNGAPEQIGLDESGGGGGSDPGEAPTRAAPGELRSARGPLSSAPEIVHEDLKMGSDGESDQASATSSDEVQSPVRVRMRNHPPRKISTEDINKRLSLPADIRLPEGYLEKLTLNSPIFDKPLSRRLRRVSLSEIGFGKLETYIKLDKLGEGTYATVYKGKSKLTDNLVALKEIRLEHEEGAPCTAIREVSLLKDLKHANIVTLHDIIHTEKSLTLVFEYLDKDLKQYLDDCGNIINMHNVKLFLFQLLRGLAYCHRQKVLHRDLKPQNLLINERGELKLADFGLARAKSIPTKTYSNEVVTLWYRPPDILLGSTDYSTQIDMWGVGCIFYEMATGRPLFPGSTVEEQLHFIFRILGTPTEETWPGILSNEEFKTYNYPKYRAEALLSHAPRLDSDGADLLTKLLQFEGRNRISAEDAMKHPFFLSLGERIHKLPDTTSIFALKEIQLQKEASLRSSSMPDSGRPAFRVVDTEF
# Chain of CDK10 (Q15131 whole entry): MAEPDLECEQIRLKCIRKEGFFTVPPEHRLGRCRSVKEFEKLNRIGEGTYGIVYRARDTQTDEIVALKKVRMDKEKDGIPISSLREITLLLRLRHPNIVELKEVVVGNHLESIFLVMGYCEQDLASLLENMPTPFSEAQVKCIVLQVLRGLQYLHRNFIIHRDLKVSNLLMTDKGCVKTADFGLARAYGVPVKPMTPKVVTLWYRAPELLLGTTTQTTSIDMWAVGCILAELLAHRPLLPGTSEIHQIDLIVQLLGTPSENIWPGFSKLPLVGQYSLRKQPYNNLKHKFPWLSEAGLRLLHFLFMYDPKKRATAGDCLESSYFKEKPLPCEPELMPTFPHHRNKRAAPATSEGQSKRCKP
smiles,measurement,setting,value
"O=C(NC1CCNCC1)c1n[nH]cc1NC(=O)c1c(Cl)cccc1Cl [AT7519, N-(4-piperidinyl)-4-(2,6-dichlorobenzoylamino)-1H-pyrazole-3-carboxamide, reference compound]",CDK14 cellular engagement screen result,"CDK14 [1]; 1 μM, screen of library of reported CDK inhibitors",efficient CDK14 inhibitor
C=CC(=O)Nc1cccc(C(=O)N2CCC(NC(=O)c3n[nH]cc3NC(=O)c3c(Cl)cccc3Cl)CC2)c1.O=C(O)C(F)(F)F [Compound 27],concentration at which CDK14 pulldown is blocked / effects shown,CDK14 [1],500 to 1000 nM
CN(C)C/C=C/C(=O)Nc1cccc(C(=O)Nc2ccc(NC(=O)c3n[nH]cc3NC(=O)c3c(Cl)cccc3Cl)cc2)c1.O=C(O)C(F)(F)F [Compound 46],concentration at which CDK14 pulldown is blocked / effects shown,CDK14 [1],500 to 1000 nM
C=CC(=O)Nc1cccc(C(=O)Nc2ccc(NC(=O)c3n[nH]cc3NC(=O)c3c(Cl)cccc3Cl)c(C)c2)c1.O=C(O)C(F)(F)F [Compound 47],CDK14 binding potency,CDK14 [2],not tolerated by CDK14
Cc1cc(NC(=O)c2cccc(NC(=O)/C=C/CN(C)C)c2)ccc1NC(=O)c1n[nH]cc1NC(=O)c1c(Cl)cccc1Cl.O=C(O)C(F)(F)F [Compound 48],CDK14 binding potency,CDK14 [2],not tolerated by CDK14
CN(C)CC/C=C/C(=O)Nc1ccc(N2CCC(NC(=O)c3n[nH]cc3NC(=O)c3c(Cl)cccc3Cl)CC2)cc1.O=C(O)C(F)(F)F [Compound 54],HCT116 toxicity,HCT116 cell line,low HCT116 toxicity
CN(C)CC/C=C/C(=O)Nc1cccc(N2CCC(NC(=O)c3n[nH]cc3NC(=O)c3c(Cl)cccc3Cl)CC2)c1.O=C(O)C(F)(F)F [Compound 56],HCT116 toxicity,HCT116 cell line,low HCT116 toxicity
same,activity in the cellular pull-down assay,CDK14 [1],"not active, or weakly active"
CN(C)CC/C=C/C(=O)Nc1ccc(S(=O)(=O)N2CC[C@@H](NC(=O)c3n[nH]cc3NC(=O)c3c(Cl)cccc3Cl)C2)cc1.O=C(O)C(F)(F)F [Compound 68],activity in the cellular pull-down assay,CDK14 [1],"not active, or weakly active"
CN(C)C/C=C/C(=O)Nc1cccc(S(=O)(=O)N2CCC(NC(=O)c3n[nH]cc3NC(=O)c3c(Cl)cc(Cl)cc3Cl)CC2)c1.O=C(O)C(F)(F)F [Compound 100],inhibition at 1 µM,CDK10,> 75%
same,inhibition at 1 µM,CDK2,> 75%
same,inhibition at 1 µM,CDK16,> 75%
same,concentration for complete inhibition of CDK14 pull-down,CDK14 [1],below 1 μM
CN(C)C/C=C/C(=O)Nc1cccc(S(=O)(=O)N2CCC(NC(=O)c3n[nH]cc3NC(=O)c3ccccc3)CC2)c1.O=C(O)C(F)(F)F [Compound 107],HCT116 toxicity,HCT116 cell line,reduced HCT116 toxicity
same,CDK14 binding potency,CDK14 [2],potent CDK14 inhibition
